Experimental data taken from patent US11479546B2, “Antimalarial hexahydropyrimidine analogues” (UCB Biopharma SRL, priority 2018, dated 2022).

tested on: Plasmodium falciparum 3D7; test: P. falciparum 3D7 asexual blood stage assay, Assay Procedure Version 2 (SYBR green readout); format: cell-based; conditions: Plasmodium falciparum, 3D7, Erythrocyte, 72 h, Version 2 of the assay procedure (asterisk *); 72 h incubation in infected erythrocytes; 50,000 nM to 15 nM
Outline: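 P. falciparum 3D7 in A+ erythrocytes (5% haematocrit, 0.5% parasitaemia) exposed 72 h at 37 °C (1% O2, 3% CO2) to 20-point 1.5-fold titrations, final 50,000–15 nM in 0.5% DMSO. SYBR green in lysis buffer overnight, fluorescence 485/528 nm; % inhibition vs mefloquine and DMSO controls, EC50 from biphasic two-site fit.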

| Structure (SMILES) | IC50 [nM] |
| --- | --- |
| C[C@@]1(c2cccc(Nc3cccc(-c4ccccc4)c3)c2Cl)CC(=O)N(C2CCOCC2)C(=N)N1 [Example 58, (6S)-6-[2-Chloro-3-(3-phenyl-anilino)phenyl]-2-imino-6-methyl-3-(tetrahydropyran-4-yl)hexahydropyrimidin-4-one] | 1630 |
| CC(C)(C)c1cnc(Nc2cccc([C@]3(C)CC(=O)N(C4CCOCC4)C(=N)N3)c2Cl)cn1 [Example 107, (6S)-6-{3-[(5-tert-Butylpyrazin-2-yl)amino]-2-chlorophenyl}-2-imino-6-methyl-3-(tetrahydro-pyran-4-yl)hexahydropyrimidin-4-one] | 863 |
| C[C@@]1(c2cccc(Nc3ccc(F)cn3)c2Cl)CC(=O)N([C@H]2C[C@@](C)(O)C2)C(=N)N1 [Example 126, (6S)-6-{2-Chloro-3-[(5-fluoro-pyridin-2-yl)amino]phenyl}-3-(3-hydroxy-3-methylcyclo-butyl)-2-imino-6-methyl-hexahydropyrimidin-4-one] | 1750 |
| C[C@@]1(c2cccc(Nc3ccnc(C(F)(F)F)c3)c2Cl)CC(=O)N([C@H]2C[C@@](C)(O)C2)C(=N)N1 [Example 131, (6S)-6-(2-Chloro-3-{[2-(trifluoromethyl)pyridin-4-yl]amino}phenyl)-3-(3-hydroxy-3-methylcyclobutyl)-2-imino-6-methylhexahydropyrimidin-4-one] | 18300 |
| C[C@@]1(c2cccc(Nc3ccc(C4CCC4)nc3)c2Cl)CC(=O)N(C2CCOCC2)C(=N)N1 [Example 106, (6S)-6-{2-Chloro-3-[(6-cyclo-butylpyridin-3-yl)amino]-phenyl}-2-imino-6-methyl-3-(tetrahydropyran-4-yl)-hexahydropyrimidin-4-one] | 374 |
| C[C@@]1(c2cccc(Nc3ccc(OC(F)F)nc3)c2Cl)CC(=O)N(C2CCOCC2)C(=N)N1 [Example 42, (6S)-6-(2-Chloro-3-{[6-(difluoromethoxy)pyridin-3-yl]-amino}phenyl)-2-imino-6-methyl-3-(tetrahydropyran-4-yl)hexahydropyrimidin-4-one] | 269 |
| C[C@@]1(c2cccc(Nc3cccc(OC(F)F)c3)c2Cl)CC(=O)N(C2CCOCC2)C(=N)N1 [Example 63, (6S)-6-{2-Chloro-3-[3-(difluoro-methoxy)anilino]phenyl}-2-imino-6-methyl-3-(tetrahydro-pyran-4-yl)hexahydropyrimidin-4-one] | 916 |
| C[C@@]1(c2cccc(Nc3ccc(Cl)cc3)c2Cl)CC(=O)N([C@H]2C[C@@](C)(O)C2)C(=N)N1 [Example 176, (6S)-6-[2-Chloro-3-(4-chloro-anilino)phenyl]-3-(3-hydroxy-3-methylcyclobutyl)-2-imino-6-methylhexahydropyrimidin-4-one] | 460 |
| Cc1cccc(C)c1Nc1cccc([C@]2(C)CC(=O)N(C3CCOCC3)C(=N)N2)c1Cl [Example 69, (6S)-6-[2-Chloro-3-(2,6-dimethylanilino)phenyl]-2-imino-6-methyl-3-(tetrahydro-pyran-4-yl)hexahydropyrimidin-4-one] | 579 |
| CC[C@]1(O)C[C@@H](N2C(=N)N[C@](C)(c3cccc(Nc4ccc(F)cc4)c3Cl)CC2=O)C1 [Example 178, (6S)-6-[2-Chloro-3-(4-fluoro-anilino)phenyl]-3-(3-ethyl-3-hydroxycyclobutyl)-2-imino-6-methylhexahydropyrimidin-4-one (cis isomer)] | 428 |
| Cc1ncc(Nc2cccc([C@]3(C)CC(=O)N(C4CCOCC4)C(=N)N3)c2Cl)c2ccccc12 [Example 90, (6S)-6-{2-Chloro-3-[(1-methyl-isoquinolin-4-yl)amino]phenyl}-2-imino-6-methyl-3-(tetrahydro-pyran-4-yl)hexahydropyrimidin-4-one] | 3110 |
| C[C@@H]1C[C@H](N2C(=N)N[C@](C)(c3cccc(Nc4ccc(C5CC5)nn4)c3Cl)CC2=O)CCO1 (relative stereo) [Example 200, (6S)-6-{2-Chloro-3-[(6-cyclo-propylpyridazin-3-yl)amino]-phenyl}-2-imino-6-methyl-3-[(2R*,4R*)-2-methyltetrahydro-pyran-4-yl]hexahydropyrimidin-4-one] | 45 |
| Cn1ccc(Nc2cccc([C@]3(C)CC(=O)N(C4CCOCC4)C(=N)N3)c2Cl)cc1=O [Example 73, (6S)-6-{2-Chloro-3-[(1-methyl-2-oxopyridin-4-yl)amino]-phenyl}-2-imino-6-methyl-3-(tetrahydropyran-4-yl)-hexahydropyrimidin-4-one] | 10400 |
| Cc1ccc(Nc2cccc([C@]3(C)CC(=O)N([C@@H]4CCO[C@@H](C)C4)C(=N)N3)c2Cl)cn1 (single isomer, unassigned; peak 2) [Example 196, (6S)-6-{2-Chloro-3-[(6-methyl-pyridin-3-yl)amino]phenyl}-2-imino-6-methyl-3-[(2S*,4R*)-2-methyltetrahydropyran-4-yl]-hexahydropyrimidin-4-one (Peak 2)] | 552 |
| C[C@@]1(c2cccc(Nc3ccccc3N=S(C)(C)=O)c2Cl)CC(=O)N(C2CCOCC2)C(=N)N1 [Example 109, (6S)-6-[2-Chloro-3-(2-{[dimethyl(oxo)-λ^6-sulfanylidene]amino}anilino)-phenyl]-2-imino-6-methyl-3-(tetrahydropyran-4-yl)-hexahydropyrimidin-4-one] | 814 |
| CC1(C)CC(N2C(=N)N[C@](C)(c3cccc(Nc4ccn(C5CC5)c(=O)c4)c3Cl)CC2=O)CCO1 (single isomer, unassigned) [Example 205, (6S)-6-{2-Chloro-3-[(1-cyclo-propyl-2-oxopyridin-4-yl)-amino]phenyl}-3-[(4R*)-2,2-dimethyltetrahydropyran-4-yl]-2-imino-6-methylhexahydro-pyrimidin-4-one] | 6210 |
| C[C@@]1(c2cccc(Nc3ccc(C(F)(F)F)cc3C#N)c2Cl)CC(=O)N(C2CCOCC2)C(=N)N1 [Example 83, 2-{2-Chloro-3-[(4S)-2-imino-4-methyl-6-oxo-1-(tetrahydro-pyran-4-yl)hexahydropyrimidin-4-yl]anilino}-5-(trifluoro-methyl)benzonitrile] | 357 |
| C[C@@]1(c2cccc(Nc3cnc4ccccn34)c2Cl)CC(=O)N(C2CCOCC2)C(=N)N1 [Example 185, (6S)-6-[2-Chloro-3-(imidazo-[1,2-a]pyridin-3-ylamino)-phenyl]-2-imino-6-methyl-3-(tetrahydropyran-4-yl)-hexahydropyrimidin-4-one] | 565 |
| C[C@@]1(c2cccc(Nc3ccc(C4CC4)nc3)c2Cl)CC(=O)N([C@H]2C[C@](O)(C(F)(F)F)C2)C(=N)N1 [Example 154, (6S)-6-{2-Chloro-3-[(6-cyclo-propylpyridin-3-yl)amino]-phenyl}-3-[3-hydroxy-3-(trifluoromethyl)cyclobutyl]-2-imino-6-methylhexahydro-pyrimidin-4-one (cis isomer)] | 884 |
| COc1cc(C#N)ccc1Nc1cccc([C@]2(C)CC(=O)N(C3CCOCC3)C(=N)N2)c1Cl [Example 47, 4-{2-Chloro-3-[(4S)-2-imino-4-methyl-6-oxo-1-(tetrahydro-pyran-4-yl)hexahydropyrimidin-4-yl]anilino}-3-methoxy-benzonitrile] | 171 |
| CC1(C)CC(N2C(=N)N[C@](C)(c3cccc(Nc4cnc(C5CC5)cn4)c3Cl)CC2=O)CCO1 (single isomer, unassigned) [Example 151, (6S)-6-{2-Chloro-3-[(5-cyclo-propylpyrazin-2-yl)amino]-phenyl}-3-[(4S*)-2,2-dimethyl-tetrahydropyran-4-yl]-2-imino-6-methylhexahydropyrimidin-4-one] | 707 |
| C[C@@]1(c2cccc(Nc3ccc(C#N)cn3)c2Cl)CC(=O)N(C2CCOCC2)C(=N)N1 [Example 183, 6-{2-Chloro-3-[(4S)-2-imino-4-methyl-6-oxo-1-(tetrahydro-pyran-4-yl)hexahydropyrimidin-4-yl]anilino}pyridine-3-carbo-nitrile] | 582 |
| Cc1ccc(Nc2cccc([C@]3(C)CC(=O)N(C4CCOCC4)C(=N)N3)c2Cl)nn1 [Example 84, (6S)-6-{2-Chloro-3-[(6-methyl-pyridazin-3-yl)amino]phenyl}-2-imino-6-methyl-3-(tetrahydro-pyran-4-yl)hexahydropyrimidin-4-one] | 1540 |

same assay, conditions: Version 2 of the assay procedure (asterisk *); 72 h incubation in infected erythrocytes; 50,000 nM to 15 nM

| Structure (SMILES) | IC50 [nM] |
| --- | --- |
| Cc1ccc(Nc2cccc([C@]3(C)CC(=O)N(C4CCOC(C)(C)C4)C(=N)N3)c2Cl)cn1 (single isomer, unassigned) [Example 145, (6S)-6-{2-Chloro-3-[(6-methyl-pyridin-3-yl)amino]phenyl}-3-[(4R*)-2,2-dimethyltetrahydro-pyran-4-yl]-2-imino-6-methyl-hexahydropyrimidin-4-one] | 1260 |
